Measurements from patent US20080119452A1, “METHODS FOR ENHANCING COGNITIVE FUNCTION” (priority 2006, published 2008).
Where two headings read alike, the source gives them in different places.

Key:
[1] = test system: rats; assay: Object recognition task (time spent on novel vs familiar object); assay type: in vivo, rat
Source text: Effect of Compounds in Object Recognition Task
Spending more time on the novel than on the familiar object indicates memory for the latter. Vehicle-treated rats spent a mean of 63% of time on the novel object. The means for all of the doses of test articles were numerically higher with values of: 70 and 78% for galantamine, 71 and 75% for a first representative compound of formula IV, and 73 and 81% for a second representative compound of formula IV.
Ennaceur A and Delacour J (1988) A new one-trial test for neurobiological studies of memory in rats. 1: Behavioral data. Behav Brain Res 31: 47-59.

[2] = test system: mouse; details: sub-optimal analgesic dose, cited from earlier work

With `COc1ccc2c3c1O[C@H]1C[C@@H](O)C=C[C@@]31CCN(C)C2` [Galantamine, galantamine] the “% Time Novel Object (Mean ± SEM)” value ([1]; 0.3 mg/kg p.o., 0.3 mg/kg) was 70 ± 6%, the “% Time Novel Object (Mean ± SEM)” value ([1]; 0.3 mg/kg p.o., listed as galantamine, 0.3 mg/kg) was 70% and the “% Time Novel Object (Mean ± SEM)” value ([1]; 1.7 mg/kg p.o., 1.7 mg/kg) was 78 ± 5 %. For the same compound, the “% Time Novel Object (Mean ± SEM)” value ([1]; 1.7 mg/kg p.o., listed as galantamine, 1.7 mg/kg) was 78%.
For rubiscolin-6, the “effect on memory consolidation” value ([2]; 3 nmol/mouse i.c.v.) is given as “enhance memory consolidation” and the “effect on memory consolidation” value ([2]; 100 mg/kg oral administration) is given as “enhance memory consolidation”.
